{"source": "patent US7977049B2", "about": "“Methods and compositions for extending the life span and increasing the stress resistance of cells and organisms” (priority 2002, dated 2011)", "key": {"[1]": {"system": "silent mating type locus (HMR)", "test": "HMR::GFP reporter silencing (fluorescence microscopy and FACS)", "assay_type": "cell-based, Saccharomyces cerevisiae", "settings": "for GFP expression from HMR by FACS: asynchronous wild type cells, 5 mM compound", "procedure": "FIG. 10. […] Cells were photographed live. […] Cells were analyzed by fluorescent activated cell sorting (FACS) to determine the extent of ADH-GFP expression. C, A MATa derivative of strain YDS970 (YDS1005) was deleted for HML and treated with 10 μg/ml alpha-factor for 3 hours. […] Cell cycle progression was monitored at each time point by FACS analysis of propidium iodide stained cells.\nGFP fluorescence was quantified by fluorescence-activated cell sorting (FACS) using a FACSCalibur flow cytometer (Becton Dickinson, Calif.) as described (45′). For G1-arrest experiments, cells were treated with 10 μg/ml alpha factor for 3 hours. DNA content was determined by FACS analysis of fixed cells stained with propidium iodide (Sigma) as described (45′). Typically 20,000 cells were analyzed per sample. Data acquisition and analysis were performed using CELLQuest software (Becton Dickenson)."}, "Sir2": {"system": "Sir2", "test": "Sir2 protein levels in the presence of nicotinamide", "assay_type": "cell-based, Saccharomyces cerevisiae", "settings": "nicotinamide 1-5 mM"}, "[2]": {"system": "silencing at the rDNA locus (RDN1)", "method": "Silencing of the MET15 marker is indicated by the accumulation of a brown pigment. Single dark brown colonies in RDN1::MET15 strains represent marker loss events. […] Silencing of the ADE2 marker results in the accumulation of a red pigment.\nCells were grown at 30° C. on YPD medium (1% yeast extract, 2% bactopeptone, 2% glucose w/v) unless otherwise stated. The extent of silencing at the ribosomal DNA locus was determined by growing RDN1::MET15 strains on Pb^2+-containing medium (0.3% peptone, 0.5% yeast extract, 4% glucose, 0.02% (w/v) ammonium acetate, 0.07% Pb(NO3)2 and 2% agar).\nStrains with either an ADE2 or MET15 marker integrated at the rDNA locus (RDN1) were examined. Silencing of ADE2 results in the accumulation of a red pigment on plates with limiting adenine, whereas silencing of MET15 leads to production of a brown pigment on Pb^2+-containing medium. […] Strains with a single extra copy of SIR2 (2×SIR2) or lacking SIR2 (sir2::TRP1), were included as controls for increased silencing and lack of silencing, respectively."}, "[3]": {"biological_target": "T1, Recombinant GST tagged yeast Sir2p (Saccharomyces cerevisiae, UniProt P06700)", "T1 construct": "gift of D. Moazed", "T1 sequence (P06700 whole entry)": "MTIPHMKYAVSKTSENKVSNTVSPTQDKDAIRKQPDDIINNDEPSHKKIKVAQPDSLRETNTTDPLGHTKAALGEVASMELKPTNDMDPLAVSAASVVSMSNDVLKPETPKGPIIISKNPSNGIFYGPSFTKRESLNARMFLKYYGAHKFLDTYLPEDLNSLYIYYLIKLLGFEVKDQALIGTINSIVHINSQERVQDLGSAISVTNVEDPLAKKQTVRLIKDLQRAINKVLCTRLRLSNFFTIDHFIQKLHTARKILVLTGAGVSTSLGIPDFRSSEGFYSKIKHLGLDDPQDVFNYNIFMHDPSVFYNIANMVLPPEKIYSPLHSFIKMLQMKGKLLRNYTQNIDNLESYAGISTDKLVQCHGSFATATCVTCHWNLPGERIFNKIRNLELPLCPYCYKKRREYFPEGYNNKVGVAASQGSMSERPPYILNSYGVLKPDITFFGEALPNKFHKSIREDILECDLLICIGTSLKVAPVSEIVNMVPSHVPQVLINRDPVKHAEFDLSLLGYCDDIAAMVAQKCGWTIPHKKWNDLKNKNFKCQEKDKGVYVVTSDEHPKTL", "test": "In vitro deacetylation assay (HDAC Fluorescent Activity Assay), Sir2", "assay_type": "biochemical", "settings": "200-750 μM NAD+, 30° C.", "procedure": "(§1) FIG. 13. […] Reactions were terminated by the addition of developer and samples were analyzed by fluorometry (excitation set at 360 nm and emission at 460 nm). Experiments were performed in triplicate. Data is shown as a Lineweaver-Burk double reciprocal plot of arbitrary fluorescence units (AFUs) min^−1 versus NAD^+ (μM). B, Experiments were performed as in A, except that recombinant human SIRT1 was used and reactions were carried out at 37° C. […] Reactions were carried out at 37° C. for 30 minutes and fluorescence was measured as in A.\n(§2) In vitro deacetylation assays—Recombinant GST tagged yeast Sir2p (gift of D. Moazed) and recombinant human SIRT1 (47′) were assayed for deacetylase activity using the HDAC Fluorescent Activity Assay/Drug Discovery Kit (AK-500, BIOMOL Research Laboratories). This assay system allows detection of a fluorescent signal upon deacetylation of a histone substrate when treated with developer. Fluorescence was measured on a fluorometric reader (Cytofluor II 400 series PerSeptive Biosystems) with excitation set at 360 nm and emission detection set at 460 nm. Reactions consisted of either 5 μg of GST-Sir2 or 2.5 μg of SIRT1, incubated with 250 μM acetylated histone substrate, 1 mM DTT and a range of NAD^+ concentrations as described, in 50 μl of assay buffer. […]"}, "recombinant human SIRT1": {"biological_target": "T2, recombinant human SIRT1 (Homo sapiens, UniProt Q96EB6)", "T2 sequence (Q96EB6 1-747)": "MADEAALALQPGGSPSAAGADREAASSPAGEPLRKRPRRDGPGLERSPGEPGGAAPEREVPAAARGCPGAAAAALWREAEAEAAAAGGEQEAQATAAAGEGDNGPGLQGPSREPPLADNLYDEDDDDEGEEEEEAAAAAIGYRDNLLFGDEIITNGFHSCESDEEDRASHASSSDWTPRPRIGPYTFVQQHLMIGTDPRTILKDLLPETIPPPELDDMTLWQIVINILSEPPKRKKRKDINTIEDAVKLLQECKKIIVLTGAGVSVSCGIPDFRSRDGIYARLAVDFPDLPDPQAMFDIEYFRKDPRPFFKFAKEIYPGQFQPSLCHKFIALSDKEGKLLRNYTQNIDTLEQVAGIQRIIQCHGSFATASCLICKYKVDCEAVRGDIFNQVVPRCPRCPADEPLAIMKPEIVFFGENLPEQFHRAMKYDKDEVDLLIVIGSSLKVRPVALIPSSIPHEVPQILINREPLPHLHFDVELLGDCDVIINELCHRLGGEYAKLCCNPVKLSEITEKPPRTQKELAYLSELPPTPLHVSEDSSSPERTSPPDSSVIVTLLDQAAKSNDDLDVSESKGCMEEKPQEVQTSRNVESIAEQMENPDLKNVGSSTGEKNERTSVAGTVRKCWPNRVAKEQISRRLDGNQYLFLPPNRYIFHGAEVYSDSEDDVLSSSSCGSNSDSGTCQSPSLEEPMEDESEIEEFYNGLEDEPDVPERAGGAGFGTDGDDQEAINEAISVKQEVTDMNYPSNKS", "test": "In vitro deacetylation assay (HDAC Fluorescent Activity Assay), SIRT1", "assay_type": "biochemical", "procedure": "as §1, §2"}, "[4]": {"system": "rDNA locus of yeast (W303AR5 strains)", "test": "Ribosomal DNA recombination (loss of ADE2 marker at the rDNA locus)", "assay_type": "cell-based, Saccharomyces cerevisiae", "settings": "5 mM nicotinamide", "procedure": "(§3) FIG. 9. […] A, Strains were assayed for rDNA stability by examining the rate of loss of an ADE2 marker integrated at the rDNA locus. […] More than 10,000 colonies were examined for each strain and each experiment was performed in triplicate. Average recombination frequencies (+/−s.d.) per cell division are shown. Relevant strains: W303-1A RDN1::ADE2 (W303AR5) and W303AR5 derivatives 2×SIR2 (YDS1572) and sir2::TRP1 (YDS878). […] C and D, Life spans were determined by scoring the number of daughter cells produced by each mother cell before cessation of cell division (68′,69′). Cells were pre-grown for a minimum of 48 h on complete glucose medium."}, "silencing at telomeres": {"system": "silencing at telomeres", "test": "Telomeric silencing assay (ADE2 marker at the telomere)", "assay_type": "cell-based, Saccharomyces cerevisiae", "settings": "5 mM nicotinamide, limiting adenine", "method": "Silencing of the MET15 marker is indicated by the accumulation of a brown pigment. Single dark brown colonies in RDN1::MET15 strains represent marker loss events. Relevant genotypes: met15Δ (JS209), MET15 (JS241), RDN1::MET15 (JS237), sir2::TRP1 (JS218), 2×SIR2 (YDS1583). […] Silencing of the ADE2 marker results in the accumulation of a red pigment. Relevant genotypes: (PSY316AT), W303-1 A ADE2 (YDS1596) and W303-1A ade2 (YDS 1595).\nCells were grown at 30° C. on YPD medium (1% yeast extract, 2% bactopeptone, 2% glucose w/v) unless otherwise stated. The extent of silencing at the ribosomal DNA locus was determined by growing RDN1::MET15 strains on Pb^2+-containing medium (0.3% peptone, 0.5% yeast extract, 4% glucose, 0.02% (w/v) ammonium acetate, 0.07% Pb(NO3)2 and 2% agar). […] Ribosomal DNA recombination frequencies were determined as previously described (44′).\nTo monitor telomeric silencing, we used a strain in which the ADE2 gene is integrated at the subtelomeric (Y′) region of the right arm of chromosome V (22′). On plates with limiting adenine, colonies have red/white sectors due to variegated expression of the ADE2 marker."}, "[5]": {"system": "silencing of mating type genes", "test": "Mating type locus silencing assay", "assay_type": "cell-based, Saccharomyces cerevisiae", "settings": "nicotinamide"}, "[6]": {"system": "yeast (PSY316AT and sir2::TRP1 strains)", "procedure": "as §3\nReplicative life span determination was performed by micromanipulation as described (25′). A minimum of 40 cells were examined per experiment and each experiment was performed at least twice independently. Statistical significance of life span differences was determined using the Wilcoxon rank sum test. Differences are stated to be significant when the confidence is higher than 95%.\nCells were grown for two days on fresh yeast YPD medium to ensure that they had fully recovered from conditions of calorie restriction prior to the assay. Daughter cells that emerged from previously unbudded mother cells were then micro-manipulated away and scored."}, "[7]": {"biological_target": "T3, association of Sir2 with rDNA, HMR and sub-telomeric DNA (Saccharomyces cerevisiae, UniProt P06700)", "T3 construct": "endogenous in cells; host or cells: S. cerevisiae W303AR5", "T3 sequence (P06700 whole entry)": "as the sequence (P06700 whole entry) above", "test": "Chromatin immunoprecipitation with α-Sir2 antibody", "assay_type": "cell-based", "settings": "5 mM nicotinamide", "procedure": "FIG. 12. […] PCR amplification of both input DNA from whole cell extracts and immunoprecipitated chromatin are shown. PCR was performed using primer pairs specific for the CUP1 gene (top panels), 5S rDNA (second panels), the HMR locus (third panels), or subtelomeric DNA 1.4 and 0.6 kb from telomeres (bottom panels).\nFluorescence Microscopy and Chomatin immunoprecipitation—GFP fluorescence was visualized in live cells grown to log phase in synthetic complete (SC) medium (1.67% yeast nitrogen base, 2% glucose, 40 mg/liter each of histidine, uridine, tryptophan, adenine and leucine). Images were captured using a Nikon Eclipse E600 microscope at a magnification of 1000× and analyzed with Scion Image software. PCR reactions were carried out in a 50 μl volume using a 1/5000 or a 1/12500 dilution of input DNA from precleared whole-cell extracts and a 1/50 dilution of immunoprecipitated DNA. PCR parameters were as follows. For CUP1 and 5S rDNA primer pairs, 26 cycles of PCR were performed with an annealing temperature of 55° C. For Tel 0.6, Tel 1.4 and HM primer pairs 32 cycles at an annealing temperature of 50° C. were used. PCR products were separated by gel electrophoresis on a 2.3% agarose gel and visualized by ethidium bromide staining."}}, "note": "Like-named read-outs stand apart in the source and are kept apart here."}
{"smiles": "NC(=O)c1cccnc1", "note": "[nicotinamide]", "values": [{"measurement": "HMR silencing in G1-arrested cells by FACS", "setting": "[1]; alpha factor arrested cells, 5 mM nicotinamide", "result": "loss of silencing"}, {"measurement": "GFP expression from HMR by FACS", "setting": "[1]", "result": "complete derepression"}, {"measurement": "GFP expression from HMR, live cells (microscopy)", "setting": "[1]; cycling cells, 5 mM nicotinamide, after 60 minutes", "result": "dramatic increase in the level of expression"}, {"measurement": "Sir2 protein levels", "setting": "Sir2", "result": "unaltered"}, {"measurement": "silencing of MET15 marker at the rDNA locus", "setting": "[2]; 5 mM nicotinamide", "result": "completely abolished"}, {"measurement": "Silencing of an ADE2 marker at the rDNA locus", "setting": "[2]; addition of nicotinamide", "result": "similarly abolished"}, {"measurement": "mode of inhibition of Sir2 deacetylation (Lineweaver-Burk plot)", "setting": "[3]", "result": "strong non-competitive inhibitor"}, {"measurement": "mode of inhibition of SIRT1 (Lineweaver-Burk plot)", "setting": "recombinant human SIRT1; varying amounts of nicotinamide and NAD+", "result": "non-competitive"}, {"measurement": "rDNA recombination in the sir2 strain", "setting": "[4]; sir2 strain", "result": "did not further increase recombination"}, {"measurement": "increase of the frequency of ADE2 marker loss at the rDNA", "setting": "[4]; wild type and 2×SIR2 cells", "result": "~7", "unit": "fold"}, {"measurement": "telomeric silencing of ADE2 marker", "setting": "silencing at telomeres", "result": "complete loss of repression"}, {"measurement": "silencing of mating type genes", "setting": "[5]", "result": "completely abrogated silencing"}, {"measurement": "Average life span, sir2 strain", "setting": "[6]; sir2::TRP1 (YDS1594), 5 mM nicotinamide", "result": 11.7}, {"measurement": "Average life span, wild type", "setting": "[6]; wild type (PSY316AT), 5 mM nicotinamide", "result": 12.1}, {"measurement": "ChIP: Sir2 association with 5S rDNA", "setting": "[7]", "result": "did not alter the amount of PCR product"}, {"measurement": "ChIP: Sir2 association with HMR", "setting": "[7]", "result": "no PCR product was obtained"}, {"measurement": "ChIP: Sir2 association with sub-telomeric DNA", "setting": "[7]; 0.6 and 1.4 kb from telomere", "result": "equivalent to background"}]}
{"smiles": "O=C(O)c1cccnc1", "note": "[nicotinic acid]", "values": [{"measurement": "GFP expression from HMR by FACS", "setting": "[1]", "result": "no increase in GFP expression"}, {"measurement": "effect on Sir2-dependent silencing", "setting": "[2]; 5 mM nicotinic acid, each of the rDNA, telomeric and mating type silencing assays", "result": "no effect"}, {"measurement": "effect on the activity of SIRT1 in vitro", "setting": "recombinant human SIRT1; 50 μM compound, 200 μM NAD+", "result": "no effect"}, {"measurement": "effect on replicative life span", "setting": "[6]; 5 or 50 mM nicotinic acid", "result": "no detrimental effect"}, {"measurement": "Average life span, sir2 strain", "setting": "[6]; sir2 strain, nicotinic acid (concentration not clear)", "result": 12.2}, {"measurement": "Average life span, wild type", "setting": "[6]; wild type, 5 mM nicotinic acid", "result": 26}, {"measurement": "Average life span, wild type", "setting": "[6]; wild type, 50 mM nicotinic acid", "result": 25}]}
{"smiles": "O=C(O)c1cccnc1C(=O)O", "note": "[quinolinic acid]", "values": [{"measurement": "GFP expression from HMR by FACS", "setting": "[1]", "result": "no increase in GFP expression"}]}
